# Measurements from paper PMC12856317, “A reversible feedback mechanism regulating mitochondrial heme synthesis” (The Journal of Biological Chemistry, 2025).
# Molecular target: T1, WT holoALAS2 (residues 54–587) (Homo sapiens, UniProt P22557)
# T1 construct: His6-SUMO (N, cleaved yes); made in house; host or cells: Escherichia coli BL21-Codon Plus (DE3)-RIL
# T1 sequence (P22557 54-587): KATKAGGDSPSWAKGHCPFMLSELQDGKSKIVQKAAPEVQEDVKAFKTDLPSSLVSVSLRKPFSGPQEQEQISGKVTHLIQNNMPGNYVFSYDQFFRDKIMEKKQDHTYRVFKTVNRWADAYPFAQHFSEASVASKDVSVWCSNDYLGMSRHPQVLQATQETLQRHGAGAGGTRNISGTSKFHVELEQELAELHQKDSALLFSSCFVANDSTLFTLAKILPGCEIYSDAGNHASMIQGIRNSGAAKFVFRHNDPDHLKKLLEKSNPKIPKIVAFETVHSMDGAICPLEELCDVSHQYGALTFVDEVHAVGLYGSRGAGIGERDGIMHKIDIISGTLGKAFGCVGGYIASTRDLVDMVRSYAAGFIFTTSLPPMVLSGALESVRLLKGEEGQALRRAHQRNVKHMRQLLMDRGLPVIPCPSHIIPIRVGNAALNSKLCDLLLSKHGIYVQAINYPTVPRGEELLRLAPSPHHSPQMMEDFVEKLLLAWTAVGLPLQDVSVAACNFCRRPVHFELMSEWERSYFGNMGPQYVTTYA
# Test: Succinyl-CoA:hemin competition analysis
# Format: biochemical
# Conditions: succinyl-CoA varied; for Km: 95% confidence interval in brackets
# Description: A discontinuous colorimetric activity assay adapted from Shoolingin-Jordan et al. and Bailey et al. was used to measure the enzyme activity ([48], [74]). The reaction was initiated by adding 100 nM purified enzyme to 50 mM potassium phosphate, pH 7.0, 10 mM MgCl2, 1 mM DTT, 100 mM glycine, and 300 μM succinyl-CoA (175 μl total). The reaction was incubated at 37 °C for 15 min and terminated with 100 μl of cold 10% trichloroacetic acid. The precipitated protein was removed by centrifugation for 5 min at 13,000g, and 240 μl of the supernatant was mixed with 240 μl of 1 M sodium acetate, pH 4.6. To derivatize ALA, 20 μl of acetylacetone was added to the mixture and boiled at 100 °C for 10 min. After the sample was cooled for 20 min, 100 μl aliquots were transferred into a clear 96-well plate in triplicate. An equal volume of Ehrlich’s reagent (p-Dimethylaminobenzaldehyde, DMAB) was added to each well, and the absorbance was monitored at 553 nm using a microplate reader (Thermo Fisher Scientific). The peak absorbance value was converted to molar ALA concentration using ε553 = 60,400 M^−1 cm^−1.
# For inhibitor competition experiments, the apoenzymes were preincubated with hemin or PLP (0–100 μM) for 15 min at 25 °C in the dark before initiating the reaction. Next, either PLP or hemin (0–100 μM) was titrated into the reactions to measure enzyme activation after hemin inhibition or enzyme inhibition of the PLP-treated apoenzyme, respectively. For succinyl-CoA:hemin competition analyses, the WT holoenzyme was mixed with hemin (0, 25, 50, and 100 μM), followed by the addition of increasing succinyl-CoA concentrations (0, 25, 50, 100, 250, and 500 μM). All experiments were performed with a minimum of three biological replicates, each with three technical replicates. Data were fit using nonlinear regression to generate an agonist dose-response curve (EC50) or an inhibitor dose-response curve (IC50). Lineweaver-Burk analysis was performed using the resulting kinetic parameters (Vmax and KM) in GraphPad Prism 10.
substance,measurement,setting,value
succinyl-CoA,Vmax,hemin 0 μM,"337.15 [445.63, 271.22] nmol/min/mg"
same,Km,hemin 0 μM,178 µM
same,Vmax,hemin 25 μM,"109.04 [132.82, 92.51] nmol/min/mg"
same,Km,hemin 25 μM,54.8 µM
same,Vmax,hemin 50 μM,"45.98 [63.13, 36.15] nmol/min/mg"
same,Km,hemin 50 μM,46.2 µM
same,Vmax,hemin 100 μM,"37.50 [60.98, 27.07] nmol/min/mg"
same,Km,hemin 100 μM,39.2 µM
